3 compounds from US9125926B2, “Vicenin 2 and analogues thereof for use as an antispasmodic and/or prokinetic agent” (priority 2011, dated 2015) can be followed below.

In brackets after ≈: the same amount, converted by molar mass.

What is called EC50 is the concentration at which the effect is half-maximal.

Data set [1] has as its system rat ileum. The experiment in a line: Rat ileum contraction induced by increasing concentrations of acetylcholine (neurotropic antispasmodic effect). The protocol:
(§1) An isolated vicenin 2 compound was tested for its antispasmodic effect with respect to the cholinergic system and with respect to nonspecific contraction mediated by Ba^++. Therefore, rat ileum was precontracted with increasing concentrations of either acetylcholine or Ba^++. The shift of either concentration response curve by the compound was determined. […] The dose of vicenin 2 for humans was estimated to be between 5 and 15 μg/70 kg b.w. which will correspond to 0.071 and 0.214 μg/kg b.w. Due to the increased metabolism in rodents compared to humans the doses were calculated as approx. between 0.5 and 1.49 μg/kg b.w. The central (blood) compartment (hydrophilic extracts) is approx. 7% of whole body volume, i.e. between 0.5/70 g and 1.4 μg/70 g blood. Since blood is in direct contact with ileum, a concentration of 7 to 20.86 μg/kg (0.007 to 0.021 μg/g) is expected for ileum. […] Therefore, it was reasonable to translate these in vivo calculations into the in vitro experiments and in these experiments 10 and 100 μl of a stock solution per 10 ml incubation bath were used. […] Under a protocol approved by the Animal Care and Use Committee of Munster, Germany, male and female rats (Charles River, Sulzfeld, Germany) weighing 200 to 320 g were used. The rats were anesthetized (CO2). The proximal ileum was removed, washed and placed in Krebs-Henseleit solution. 1 cm segments were placed in 10 mL organ baths with a resting tension of 1.0 g (preload). One end was attached to a force displacement transducer (lever transducer B40, Typ 373) combined with a two-channel amplifier (type 301, Hugo Sachs Elektronik, March, Germany); for the recording of tension changes a multi-pen recorder was used (Rikadenki Kogyo, Tokio, Japan). The composition of Krebs-Henseleit solution was (mM): […] The solution was kept at 37° C., pH 7.4 and gassed with carbogen (a 95% O2/5% CO2 mixture). Equilibration time for the ileum before starting the experiment was at least 30 min. After the tissues had been pre-treated with the extracts for 3 min cumulative concentration response curves using either acetylcholine or barium ion were recorded isotonically in the organ bath, and the effect was allowed to reach a steady state at each concentration. The results were normalized to 100% (maximum effect of either acetylcholine or barium ion alone). Differences between entire curves were obtained by comparing F-values of the best fitted curves by using GraphPad-Prism (version 3.00, GraphPad Software, Inc., 1999). P<0.05 was regarded as statistically significant.

Data set [2] relates to rat ileum. The experiment in a line: Rat ileum contraction induced by increasing concentrations of barium ion (musculotropic antispasmodic effect). Here is the method: as §1
The test system of data set [3] is rat ileum. The experiment in a line: Rat ileum contraction, effect of the compound on its own (spasmolytic effect). The settings on record: data as % of maximum acetylcholine effect; FIG. 1. Here is the method: An isolated vicenin 2 compound was tested for its antispasmodic effect with respect to the cholinergic system and with respect to nonspecific contraction mediated by Ba^++. Therefore, rat ileum was precontracted with increasing concentrations of either acetylcholine or Ba^++. The shift of either concentration response curve by the compound was determined. […] The dose of vicenin 2 for humans was estimated to be between 5 and 15 μg/70 kg b.w. which will correspond to 0.071 and 0.214 μg/kg b.w. Due to the increased metabolism in rodents compared to humans the doses were calculated as approx. between 0.5 and 1.49 μg/kg b.w. The central (blood) compartment (hydrophilic extracts) is approx. 7% of whole body volume, i.e. between 0.5/70 g and 1.4 μg/70 g blood. Since blood is in direct contact with ileum, a concentration of 7 to 20.86 μg/kg (0.007 to 0.021 μg/g) is expected for ileum. […] Therefore, it was reasonable to translate these in vivo calculations into the in vitro experiments and in these experiments 10 and 100 μl of a stock solution per 10 ml incubation bath were used. […] After the tissues had been pre-treated with the extracts for 3 min cumulative concentration response curves using either acetylcholine or barium ion were recorded isotonically in the organ bath, and the effect was allowed to reach a steady state at each concentration. […]

In data set [4] the test system is murine frontal cortex networks. The experiment in a line: Cortical network activity in vitro, electrophysiological multi-channel recordings on MEA neurochips. The format is cell-based, mice. The text has this: Purpose of this example was the evaluation of the acute neuroactive effects of vicenin 2 (named AUC-V) on the neuronal activity of murine frontal cortex networks in vitro by means of electrophysiological multi-channel recordings.
Therefore, in a first step the dose-effect curve of vicenin 2 was plotted by means of cumulatively increasing the substance concentration, so that the spectrum of activity of the substance is optimally covered with 9 concentrations. Concentration from 100 fg/ml, 10 pg/ml, […], 1 ng/ml, 100 ng/ml, 1 μg/ml, 10 μg/ml, 100 μg/ml and 300 μg/ml were used.
Subsequently, the measurements of the dose-effect curve of the test substances were repeated at least 10 times. The recorded electrical activity patterns were characterized by 200 features and their changes were statistically evaluated.
The microelectrode array neurochips (MEA neurochips) were provided by the Center for Network Neuroscience (CNNS) at the University of North Texas. These 5×5 cm^2 glass chips have a central recording matrix with 64 passive electrodes and indium tin oxide conductors. The hydrophobic insulation material surface was activated by a brief butane flame pulse through a stainless steel mask. Thus, cell attachment on a confined adhesive region (5 mm diameter centered on the electrode array) is ensured. The activated surface regions were coated with poly-D-lysine (25 μg/ml; 30-70 kD) and laminin (16 μg/ml). Fabrication techniques and culture methods have been described previously.
Frontal cortex tissue was harvested from embryonic day 15, or day 14 chr:NMRI mice. After ethyl ether anesthesia, mice were sacrificed by cervical dislocation according to the German Animal Protection Act §4. […] Cultures were incubated at 37° C. in a 10% CO2 atmosphere until ready for use, which usually is four weeks to three months after seeding. […]
For extracellular recording, MEA neurochips were placed into sterilized constant-bath recording chambers and maintained at 37° C. […] The signals routinely recorded by these neurochips are located in a range of 15-1800 μV. […]

In data set [5] the test system is murine frontal cortex networks. The experiment in a line: Pattern recognition classification of activity patterns against the NeuroProof database (105 substances). It is filed as cell-based, mice. As to conditions: AUC-V, all 143. Here is the method:
Afterwards, a further analysis was carried out through a pattern-recognition analysis and through comparison with NeuroProof database to determine relevant mechanisms involved in the frontal cortex activity pattern induced changes by each substance.
To clarify the mode of action of the test substance on the activity of cortical networks these experiments were further analyzed using methods of pattern recognition. For each stable concentration activity phase we normalized the 200 spike train parameters by the native reference activity.
Using a feature selection algorithm, on the basis of the reference substances, the 40 most descriptive parameters for all 200 spike train parameters were selected. The rankings of activity features using various score methods based on classification experiments and compared their total correct predictions were calculated. In this manner, the best results for a MDL (minimal description length) modified algorithm were obtained. A training data set with these 40 spike train parameters was established in the form of data records from the reference substances. An artificial neuronal network, multi layer feed forward network and back propagation algorithm […] hidden units was then trained. The respective data records of the four substances were all subsequently classified. A classification against 105 substances in the database was carried out.
The classification against 105 substances using the electrophysiological multi-channel recording of vicenin 2 and the 105 substances identified several activities for vicenin 2.

Data set [6] is described as follows: Solubility of isolated vicenin 2. The format is physicochemical.

Regarding `CN1[C@@H]2CC[C@H]1C[C@@H](OC(=O)C(CO)c1ccccc1)C2` (stereo partly drawn) [Atropine, reference compound], the “shift of the acetylcholine concentration response curve” value in the data set on rat ileum [1] (positive control, 5×10^−5 mg/ml, FIG. 2) is “expected competitive neurotropic antispasmodic effect”; with rat ileum [1] (positive control, 5×10^−5 mg/ml, FIG. 2, listed as atropine), “significantly different from the acetylcholine curve”.
On to `COc1ccc(Cc2nccc3cc(OC)c(OC)cc23)cc1OC` [Papaverine, reference compound], for which the “shift of the Ba++ concentration response curve” value is “expected non-competitive musculotropic antispasmodic effect” with rat ileum [2] (positive control, 4×10^−2 g/ml, FIG. 4) and “significantly different from the acetylcholine curve without additions” with rat ileum [2] (positive control, 4×10^−2 g/ml, FIG. 4, listed as papaverine).
In the case of `O=c1cc(-c2ccc(O)cc2)oc2c([C@@H]3O[C@H](CO)[C@@H](O)[C@H](O)[C@H]3O)c(O)c([C@@H]3O[C@H](CO)[C@@H](O)[C@H](O)[C@H]3O)c(O)c12` [vicenin 2, 5,7-Dihydroxy-2-(4-hydroxyphenyl)-6,8-bis[(2S,3R,4R,5S,6R)-3,4,5-trihydroxy-6 (hydroxymethyl)oxan-2-yl]chromen-4-one], in the data set with rat ileum [3], the “effect on rat ileum contraction from its own (direct spasmolytic effect)” value is listed as “slight (not significant) relaxation”. Moreover, the “shift of the acetylcholine concentration response curve” value with rat ileum [1] (0.005 mg/ml final bath concentration, FIG. 2) is “shifted the acetylcholine curve to the right in a competitive manner”; with rat ileum [1] (0.005 mg/ml final bath concentration, FIG. 2, listed as AUC-V) it was “significantly different from the acetylcholine curve”; in the data set with rat ileum [1] (0.05 mg/ml final bath concentration, FIG. 3) it was “stronger rightward and downward shift of the acetylcholine curve”; in the data set with rat ileum [1] (0.05 mg/ml final bath concentration, FIG. 3, listed as AUC-V), “significantly different from the acetylcholine curve”. Further, the “shift of the Ba++ concentration response curve” value is “shifted the Ba^++ curve downwards” with rat ileum [2] (0.005 mg/ml final bath concentration, FIG. 4); “significantly different from the acetylcholine curve without additions” in the data set on rat ileum [2] (0.005 mg/ml final bath concentration, FIG. 4, listed as AUC-V); “rightward and downward shift of the Ba^++ curve” with rat ileum [2] (0.05 mg/ml final bath concentration, FIG. 5); “significantly different from the acetylcholine curve with no further additions” in the data set on rat ileum [2] (0.05 mg/ml final bath concentration, FIG. 5, listed as AUC-V). Also, in data set [4], the “effect on burst structure of the network” value was “no affects on the burst structure”. Further, in data set [4] (Mus musculus, 9 accumulating concentrations, FIG. 6, read-out: EC50 of decrease of the cortical network activity (spike rate)), the EC50 came to 2 µg/mL (≈ 3.36 µM). The “maximum decrease of the cortical network activity” value in data set [4] (remaining activity, FIG. 6) is on record as 80 % of the native activity. The “data records classified as the respective substance” value is on record as 15% in data set [5] (classified as Amisulpride); 12% in data set [5] (classified as Atropinemethylbromide); 11% in data set [5] (classified as DPDPE); 14% in data set [5] (classified as Enkephalin); 15% in data set [5] (classified as Eserine); 12% in data set [5] (classified as Indatraline). Moreover, the “data records classified as the respective substance” value is 12% in data set [5] (classified as Modafinil), 12% in data set [5] (classified as Nicotine), 17% in data set [5] (classified as Olanzapine) and 12% in data set [5] (classified as Sodium dodecyl sulfate). Also, the solubility result in data set [6] is “good solubility”.
